Measurements taken from the supplement of paper PMC10307832.

Tests used:
Test in all cases: relative viability (nuclei count vs DMSO), 5 days (fraction); higher = more cells survive
[1] = compound: C1=CC=C(C(=C1)C2=CC=C(C=C2)C3=CSC4=C3C(=C(C(=O)N4)C#N)O)O + CCNC(=O)c1noc(-c2cc(C(C)C)c(O)cc2O)c1-c1ccc(CN2CCOCC2)cc1 [Luminespib] (partner 0.01 µM)
Summary of the method: (§1)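 Relative viability is defined as nuclei in treated wells over nuclei in vehicle wells. Duplicate plates were run and medians reported. Lung cancer cell lines in 1536-well plates were dosed by pin tool one day after seeding, with one drug or with a fixed anchor-drug dose plus five library-drug doses (not always all listed) in √10 steps, and nuclei were counted after 5 days.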

[2] = compound: O=C(CCCCCCNC(=O)c1cnc(N(c2ccccc2)c2ccccc2)nc1)NO [Ricolinostat] + CC1(C)CCC(c2ccc(Cl)cc2)=C(CN2CCN(c3ccc(C(=O)NS(=O)(=O)c4ccc(N[C@H](CCN5CCOCC5)CSc5ccccc5)c(S(=O)(=O)C(F)(F)F)c4)cc3)CC2)C1 [Navitoclax] (partner 0.5 µM)
Summary of the method: as §1

[3] = compound: C1=CC=C(C(=C1)C2=CC=C(C=C2)C3=CSC4=C3C(=C(C(=O)N4)C#N)O)O + CC1(C)CCC(c2ccc(Cl)cc2)=C(CN2CCN(c3ccc(C(=O)NS(=O)(=O)c4ccc(N[C@H](CCN5CCOCC5)CSc5ccccc5)c(S(=O)(=O)C(F)(F)F)c4)cc3)CC2)C1 [Navitoclax] (partner 0.5 µM)
Summary of the method: as §1

[4] = compound: C1=CC=C(C(=C1)C2=CC=C(C=C2)C3=CSC4=C3C(=C(C(=O)N4)C#N)O)O + CC(=O)c1c(C)c2cnc(Nc3ccc(N4CCNCC4)cn3)nc2n(C2CCCC2)c1=O [Palbociclib] (partner 0.5 µM)
Summary of the method: as §1

[5] = compound: O=C(CCCCCCNC(=O)c1cnc(N(c2ccccc2)c2ccccc2)nc1)NO [Ricolinostat] + CC(C)C[C@H](NC(=O)[C@H](Cc1ccccc1)NC(=O)c1cnccn1)B(O)O [Bortezomib] (partner 0.002 µM)
Summary of the method: as §1

NCI-H1792
relative viability ([1]; first compound 0.253 µM): 0.576 | relative viability ([1]; first compound 0.8 µM): 0.641 | relative viability ([1]; first compound 2.53 µM): 0.473 | relative viability ([1]; first compound 8 µM): 0.288 | relative viability ([2]; first compound 0.08 µM): 0.438 | relative viability ([2]; first compound 0.253 µM): 0.632 | relative viability ([2]; first compound 0.8 µM): 0.518 | relative viability ([2]; first compound 2.53 µM): 0.654 | relative viability ([3]; first compound 0.253 µM): 0.441 | relative viability ([3]; first compound 0.8 µM): 0.354 | relative viability ([3]; first compound 2.53 µM): 0.704 | relative viability ([3]; first compound 8 µM): 0.276 | relative viability ([4]; first compound 0.253 µM): 0.65 | relative viability ([4]; first compound 2.53 µM): 0.895 | relative viability ([4]; first compound 8 µM): 0.355 | relative viability ([5]; first compound 0.08 µM): 0.899 | relative viability ([5]; first compound 0.253 µM): 0.926 | relative viability ([5]; first compound 0.8 µM): 0.944 | relative viability ([5]; first compound 2.53 µM): 0.973
